# Results as given in patent US11834414B2, “1-methyl-4-[(4-phenylphenyl)sulfonylmethyl]cyclohexyanol and 1-methyl-4-[[4-(2-pyridyl)phenyl]sulfonylmethyl]cyclohexanol compounds and their therapeutic use” (Modern Biosciences Limited, priority 2018, dated 2023).
# “Also recorded” adds a separate entry of the source.
# Tests used:
# [1] = target: CYP2C9 (Homo sapiens (Human), UniProt P11712); assay: Human Cytochrome P450 Inhibition Assay (Bactosomes); assay type: in vitro ADME; conditions: recombinant Bactosomes, 10 minutes, 37° C.
# CYP2C9, sequence (P11712 whole entry): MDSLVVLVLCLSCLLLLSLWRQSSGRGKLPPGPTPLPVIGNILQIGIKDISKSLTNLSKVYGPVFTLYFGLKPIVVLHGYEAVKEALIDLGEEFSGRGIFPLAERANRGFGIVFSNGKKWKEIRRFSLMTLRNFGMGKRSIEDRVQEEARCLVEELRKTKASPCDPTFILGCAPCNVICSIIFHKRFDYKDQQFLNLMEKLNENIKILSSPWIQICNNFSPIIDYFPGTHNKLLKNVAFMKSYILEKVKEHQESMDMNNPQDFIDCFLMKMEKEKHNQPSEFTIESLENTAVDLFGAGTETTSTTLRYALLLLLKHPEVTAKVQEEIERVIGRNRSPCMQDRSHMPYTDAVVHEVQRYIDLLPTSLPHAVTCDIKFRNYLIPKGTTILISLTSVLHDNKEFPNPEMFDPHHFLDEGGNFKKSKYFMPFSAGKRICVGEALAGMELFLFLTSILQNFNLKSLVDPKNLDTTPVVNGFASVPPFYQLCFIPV
# [2] = target: CYP3A4 (Homo sapiens (Human), UniProt P08684); assay: as above; assay type: in vitro ADME; conditions: recombinant Bactosomes, 10 minutes, 37° C.
# CYP3A4, sequence (P08684 whole entry): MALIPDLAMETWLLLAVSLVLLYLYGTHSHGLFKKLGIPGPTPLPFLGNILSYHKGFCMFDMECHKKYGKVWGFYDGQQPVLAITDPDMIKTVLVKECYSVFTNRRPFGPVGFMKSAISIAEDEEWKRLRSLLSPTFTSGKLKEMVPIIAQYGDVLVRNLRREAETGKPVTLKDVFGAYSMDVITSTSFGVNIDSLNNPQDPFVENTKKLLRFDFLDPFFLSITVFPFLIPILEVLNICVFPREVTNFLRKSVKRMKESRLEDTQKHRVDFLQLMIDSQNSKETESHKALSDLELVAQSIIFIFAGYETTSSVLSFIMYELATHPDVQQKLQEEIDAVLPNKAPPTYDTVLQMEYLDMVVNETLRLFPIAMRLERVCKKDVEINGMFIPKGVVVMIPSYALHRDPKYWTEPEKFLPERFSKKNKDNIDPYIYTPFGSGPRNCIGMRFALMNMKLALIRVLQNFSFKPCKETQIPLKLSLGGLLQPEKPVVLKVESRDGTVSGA
# [3] = target: CYP1A2 (Homo sapiens (Human), UniProt P05177); conditions: recombinant enzyme
# CYP1A2, sequence (P05177 whole entry): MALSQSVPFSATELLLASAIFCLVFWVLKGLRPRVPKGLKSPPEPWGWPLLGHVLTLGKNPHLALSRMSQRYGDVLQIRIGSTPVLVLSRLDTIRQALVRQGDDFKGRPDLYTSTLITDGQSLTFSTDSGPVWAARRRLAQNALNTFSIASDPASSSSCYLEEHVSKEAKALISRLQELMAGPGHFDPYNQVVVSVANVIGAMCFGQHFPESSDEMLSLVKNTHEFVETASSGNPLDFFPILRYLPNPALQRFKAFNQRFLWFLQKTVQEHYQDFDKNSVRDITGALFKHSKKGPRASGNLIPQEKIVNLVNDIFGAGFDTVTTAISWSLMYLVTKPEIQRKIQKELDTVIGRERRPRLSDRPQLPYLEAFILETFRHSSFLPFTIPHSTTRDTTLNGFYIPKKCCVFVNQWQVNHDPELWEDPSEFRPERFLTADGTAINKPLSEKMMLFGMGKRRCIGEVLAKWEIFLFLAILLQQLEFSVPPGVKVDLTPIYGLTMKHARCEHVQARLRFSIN
# [4] = target: CYP2C19 (Homo sapiens (Human), UniProt P33261); assay: Human Cytochrome P450 Inhibition Assay (Bactosomes); assay type: in vitro ADME; conditions: recombinant Bactosomes, 10 minutes, 37° C.
# CYP2C19, sequence (P33261 whole entry): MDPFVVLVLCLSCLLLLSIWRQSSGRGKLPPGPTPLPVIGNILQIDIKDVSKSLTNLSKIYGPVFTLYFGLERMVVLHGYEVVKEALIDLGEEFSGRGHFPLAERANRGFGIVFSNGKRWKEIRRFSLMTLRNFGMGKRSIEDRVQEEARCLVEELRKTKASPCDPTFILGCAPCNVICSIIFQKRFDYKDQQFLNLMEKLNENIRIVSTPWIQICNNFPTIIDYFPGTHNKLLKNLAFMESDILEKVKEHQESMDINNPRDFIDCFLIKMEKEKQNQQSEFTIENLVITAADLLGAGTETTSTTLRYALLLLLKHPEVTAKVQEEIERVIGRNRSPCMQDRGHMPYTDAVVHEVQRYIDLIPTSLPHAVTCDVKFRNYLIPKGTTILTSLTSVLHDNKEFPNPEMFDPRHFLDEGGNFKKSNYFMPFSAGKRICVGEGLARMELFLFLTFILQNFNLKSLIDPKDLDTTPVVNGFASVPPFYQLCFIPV
# [5] = target: CYP2D6 (Homo sapiens (Human), UniProt P10635); assay: as above; assay type: in vitro ADME; conditions: recombinant Bactosomes, 10 minutes, 37° C.
# CYP2D6, sequence (P10635 whole entry): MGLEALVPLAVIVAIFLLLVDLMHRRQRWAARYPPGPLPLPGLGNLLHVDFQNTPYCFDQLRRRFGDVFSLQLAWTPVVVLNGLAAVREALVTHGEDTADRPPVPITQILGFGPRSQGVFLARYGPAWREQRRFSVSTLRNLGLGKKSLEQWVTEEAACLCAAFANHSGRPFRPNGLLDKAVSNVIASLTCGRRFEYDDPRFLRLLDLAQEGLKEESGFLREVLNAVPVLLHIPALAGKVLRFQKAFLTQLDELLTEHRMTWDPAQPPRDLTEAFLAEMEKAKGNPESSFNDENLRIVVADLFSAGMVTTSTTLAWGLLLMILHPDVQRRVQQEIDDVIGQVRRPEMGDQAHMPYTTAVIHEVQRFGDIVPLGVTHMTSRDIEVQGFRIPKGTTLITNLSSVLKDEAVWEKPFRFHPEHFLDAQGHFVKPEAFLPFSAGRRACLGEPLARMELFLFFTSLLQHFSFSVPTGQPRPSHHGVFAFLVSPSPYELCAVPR
# [6] = Human hepatocyte stability; assay type: in vitro ADME; conditions: human, pooled human hepatocytes, human hepatocytes, 1 μM, 60 minute incubation; for hepatocyte CLint at 1 μM: read-out: Human Clint (uL/min/million cells); for half-life at 1 μM: read-out: Human t1/2
# Protocol: (§1) Metabolic stability of test compounds was measured by determination of the rate of disappearance of the compound when incubated in the presence of rat or human hepatocytes, a primary source of the most important enzymes (cytochrome P450s) involved in drug metabolism. Study of drug stability in the presence of primary hepatocytes is accepted as a valuable model permitting rapid prediction of in vivo drug stability.
# (§2) Rat or human hepatocytes were obtained from a commercial source and viability was assessed using a trypan blue solution prior to use. Test compounds (final concentration 1 μM, 0.1% DMSO, 0.9% acetonitrile) or a marker (diclofenac or diltiazem, final assay concentration 1 μM, 0.1% DMSO, 0.9% acetonitrile) were incubated with pooled hepatocytes for a 60 minute period and samples removed at up to 6 time points and analysed by LC-MS/MS for the presence/amount of test compounds.
# (§3) Each compound was incubated for 0, 5, 15, 30, 45, or 60 minutes. The reactions were stopped by the addition of methanol containing an internal standard (1 μM Tolbutamide) at the appropriate time points, mixed and placed at −20° C. for ≥1 hour to quench and allow protein to precipitate. All samples were centrifuged (2500×g, 20 minutes, 4° C.). The aliquots were analysed using LC-MS/MS. Reactions were performed in duplicate at 37° C.
# (§4) Data were processed, and the results plotted as In(concentration) vs. time. The elimination rate constant (slope of the regression line, k) was calculated using the following formula, where C(t) is the concentration at time t and C(0) is the starting concentration:
# (§5) The half-life (t1/2) was calculated using the following formula: […]
# (§6) The intrinsic clearance (CIint) was calculated using the following formula, where [cell] is the hepatocyte concentration in the assay: […]
# [7] = tested on: Thp1 human monocytic cells; assay: Thp1 Monocyte ATP Production Assay; assay type: cell-based; conditions: Homo sapiens, THP-1, 24 h, Thp1 cells, 24 hour incubation, ATPLite; 9-point range 10 μM to 10 nM, mean of 2 independent experiments
# Protocol: In vitro potency of test compounds was determined by incubation with Thp1 human monocytic cells and subsequent determination of Adenosine TriPhosphate (ATP) levels using firefly luciferase.
# ATP is present in all metabolically active cells. When cells lose integrity, their ability to synthesise ATP is rapidly lost. […] See, e.g., Kang et al., 2015; Jiang et al., 2013. Levels of ATP can be monitored using a system based on firefly (Photinus pyralis) luciferase (see, e.g., Auld et al., 2009) using commercially available kits. A system known as
# ATPlite™ was using to measure effects of the test compounds on cellular viability in vitro. This one-step assay system is an adenosine triphosphate (ATP) monitoring system based on the production of light caused by the reaction of ATP from the cells with added luciferase and D-luciferin, as illustrated in the reaction scheme below:
# The emitted light is proportional to the ATP concentration.
# Thp1 cells were plated at 112500 cells per well in 125 μL RPMI-1640 (no glucose) with 1% FBS in 96-well plates. Test compounds were prepared as 100 mM solutions in DMSO. These stock solutions were diluted in DMSO and then diluted 1000× in culture medium (RPMI) before being added directly to the wells so as to give the desired final compound concentration. After a 24 hour incubation at 37° C./5% CO2, ATPLite™ (Perkin Elmer) was added to each well (1:10 v/v, 10 μL). The plate was then incubated at room temperature for 5 minutes and the emitted light was quantified on Viewlux with a measurement time of 0.3 seconds and binning 4×4.
# The average results for each test compound were expressed as a percent (%) of the average control value reflecting cell viability. The average values across the concentrations tested were then plotted and the IC50 for was calculated by fitting the data to a 4-parameter IC50 equation using software from Graf it (Erithacus Software). Each experiment was repeated twice and the data are presented as the mean IC50 from both experiments.
# [8] = Aqueous solubility in FaSSIF; assay type: physicochemical; conditions: kinetic from dmso stock, pH 6.5, three replicates
# Protocol: Aqueous solubility was measured by equilibration of compounds with fasted state simulated intestinal fluid (FaSSIF) and quantified spectrophotometrically.
# Preparation of blank FaSSIF: 0.21 g of sodium hydroxide (NaOH) pellets, 1.97 g of dihydrogen sodium phosphate (NaH2PO4.2H2O) and 3.09 g of sodium chloride (NaCl) were dissolved in 400 mL of deionised water. The pH was adjusted to 6.5 using 1 M hydrochloric acid and further deionised water added to a final volume of 500 mL.
# Preparation of FaSSIF: 0.056 g of SIF Powder (containing sodium taurocholate and lecithin) (Phares AG) was dissolved in 25 mL of blank FaSSIF and stirred until the powder was completely dissolved. The solution was allowed to stand for 2 hours during which it became opalescent; it was used within 24 hours. The final solution composition was characterised as follows: • Sodium taurocholate: 3 mM • Lecithin: 0.75 mM • Osmolarity: 270±10 mOsmol • pH: 6.5
# The optical density was measured at the end of the incubation period for test compounds and a reference used to determine solubility. In brief, two samples were prepared for each determination: a reference sample consisting of a stock solution of test compound in DMSO diluted in system solution (a phosphate free, low absorption buffer) and propanol; and a test sample (prepared in triplicate) consisting of 0.5 mL FaSSIF spiked with test compound at 0.2 mM. Each sample was incubated at room temperature for 16 hours with constant shaking at 250 rpm. At the end of the incubation period, 0.3 mL of each sample was filtered through a pION filter plate (PION, Woburn MA), diluted 1:1 with propanol and scanned using UV spectrophotometry at λmax ([…]) using a Spectra Max Plus—Version 2.1000 (Molecular Devices, Sunnyvale, CA), with pSOL Explorer solubility determination software (pION, Woburn, MA).
# FaSSIF solubility was calculated using the following formula:
# [formula] • wherein: • “OD” is the optical density; • “Cr” is the concentration of the reference (33.4 μM); and • “molecular weight” is for the test compound (e.g., 381.44 for ABD735).
# [9] = Rat hepatocyte stability; assay type: in vitro ADME; conditions: rat, pooled rat hepatocytes, 60 minute incubation; for hepatocyte CLint at 1 μM: read-out: Rat Clint (μL/min/million cells); for half-life at 1 μM: read-out: Rat t1/2
# Protocol: as §1, §2, §3, §4, §5, §6
# [10] = tested on: human hepatocytes; assay: Human hepatocyte stability; assay type: in vitro ADME; conditions: hepatocyte stability, compared to the reference compounds
# Protocol: as §1, §2, §3, §4, §5, §6
# [11] = Metabolite identification in rats; assay type: in vivo, Han Wistar rats; conditions: rat, 1 mg/kg intravenous
# Protocol: The formation of metabolites in rats was assessed to determine the propensity of the compounds to form a biaryl metabolite.
# The corresponding sulfonamide compounds (for example, reference compound HMC-C-01-A) give rise to a sulphonamide metabolite which is persistent and has a long half-life. In addition, the biaryl sulphonamide metabolite acts as an inducer of metabolism in rats, which may complicate the assessment of toxicity in rodents. Therefore, the lower the propensity to form a biaryl sulphonamide metabolite, the greater the potential suitability of the compound for development for human use.
# Plasma samples from Han Wistar rats, aged 8-12 weeks, were collected from animals dosed with test compound. Test compounds at a dose of 1 mg/kg were administered intravenously as a solution in 5% NMP, 5% Solutol HS, and 90% normal saline. Animals were given free access to food throughout the study. Blood samples were taken under light isoflurane anaesthesia at 12 time points following an intravenous dose (0.033, 0.1, 0.167, 0.25, 0.5, 1, 2, 4, 6, 8, 12, and 24 hours). The blood samples were collected from a set of three rats at each time point in labelled micro centrifuge tube containing K2EDTA as anticoagulant. Plasma samples were separated by centrifugation of whole blood.
# All samples were processed for analysis by protein precipitation using acetonitrile and analysed with a fit-for-purpose LC-MS/MS method.
# At the completion of the study, the results were expressed as detection of the metabolite and time course of formation.
SMILES,IC50 [1] [µM],IC50 [2] [µM],IC50 [3] [µM],IC50 [4] [µM],IC50 [5] [µM],hepatocyte CLint at 1 μM [6] [µL/min/1e6 cells],half-life at 1 μM [6] [min],IC50 [7] [µM],solubility at 16 h [8] [µg/mL],hepatocyte CLint at 1 μM [9] [µL/min/1e6 cells],half-life at 1 μM [9] [min],metabolic stability (in words) [10],time after administration at which metabolite MET-002 was detected [11] [h],formation of biaryl sulphonamide metabolite (MET-001) in plasma ([11]; up to 24 hours),formation of biaryl sulphonic acid metabolite (MET-002) in plasma ([11]; up to 24 hours)
"C[C@]1(O)CC[C@H](CS(=O)(=O)c2ccc(-c3ccc(F)cc3F)cc2)CC1 [CHMSA-04-B, trans-4-(((2′,4′-difluoro-(1,1′-biphenyl)-4-yl)sulfonyl)methyl)-1-methylcyclohexan-1-ol]",,,,,,< 3,> 460,2.4,40,51.3,31.4,,,,
"C[C@]1(O)CC[C@@H](CS(=O)(=O)c2ccc(-c3ccc(F)cc3F)cc2)CC1 [CHMSA-04-A, cis-4-(((2′,4′-Difluoro-(1,1′-biphenyl)-4-yl)sulfonyl)methyl)-1-methylcyclohexan-1-ol]",,,,,,40.6,27.5,0.98,> 70,37.4,47.1,,,,
"C[C@]1(O)CC[C@@H](CS(=O)(=O)c2ccc(-c3ccc(C#N)cc3)c(F)c2)CC1 [CHMSA-12-A, 2′-fluoro-4′-(((cis-4-hydroxy-4-methylcyclohexyl)methyl)sulfonyl)-[1,1′-biphenyl]-4-carbonitrile]",,,,,,< 3.1,> 436,1.8,,,,exceptionally good stability,,,
"C[C@]1(O)CC[C@H](CS(=O)(=O)c2ccc(-c3ccc(C#N)cc3)c(F)c2)CC1 [CHMSA-12-B, 2′-Fluoro-4′-(((trans-4-hydroxy-4-methylcyclohexyl)methyl)sulfonyl)-[1,1′-biphenyl]-4-carbonitrile]",,,,,,< 3.1,> 442,3.2,,,,exceptionally good stability,,,
"C[C@]1(O)CC[C@H](CS(=O)(=O)c2ccc(-c3ccc(Cl)cc3C#N)cc2)CC1 [CHMSA-10-B, 4-Chloro-4′-((trans-4-hydroxy-4-methylcyclohexyl)methanesulfonyl)-(1,1′-biphenyl)-2-carbonitrile]",,,,,,5.8,195,1.96,,336,4.8,,0.5,did not produce any biaryl sulphonamide metabolite,detected only transiently; also recorded: only transiently detected

# Further lines, with some results ahead:
IC50 [1] [µM],IC50 [2] [µM],IC50 [3] [µM],IC50 [4] [µM],IC50 [5] [µM],hepatocyte CLint at 1 μM [6] [µL/min/1e6 cells],half-life at 1 μM [6] [min],IC50 [7] [µM],solubility at 16 h [8] [µg/mL],hepatocyte CLint at 1 μM [9] [µL/min/1e6 cells],half-life at 1 μM [9] [min],metabolic stability (in words) [10],time after administration at which metabolite MET-002 was detected [11] [h],SMILES,formation of biaryl sulphonamide metabolite (MET-001) in plasma ([11]; up to 24 hours),formation of biaryl sulphonic acid metabolite (MET-002) in plasma ([11]; up to 24 hours)
34,33,23,> 50,> 50,,,,,,,,,"CC1(O)CCC(NS(=O)(=O)c2ccc(-c3ccc(C#N)cc3Cl)cc2)CC1 (stereo not drawn) [HMC-C-09-A, reference compound]",,
27,> 50,36,> 50,> 50,,,,,,,,,"CC1(O)CCC(NS(=O)(=O)c2ccc(-c3ncc(Cl)cc3C#N)cc2)CC1 (stereo not drawn) [HMC-N-05-A, reference compound]",,
2.4,9.2,> 16,8.5,> 16,,,,,,,,,"CC1(O)CCC(NS(=O)(=O)c2ccc(-c3cc(F)c(F)cc3F)cc2)CC1 (stereo not drawn) [HMC-C-10-B, reference compound]",,
2.7,12,11,5.1,9.3,,,,,,,,,"CC1(O)CCC(NS(=O)(=O)c2ccc(-c3ccc(Cl)cc3C#N)c(Cl)c2)CC1 (stereo not drawn) [HMC-C-11-A, reference compound]",,
